{
  "source": "paper PMC4492822",
  "about": "(EMBO Molecular Medicine, 2015)",
  "key": {"A549 cells [1]": {"tested_on": "A549 cells", "test": "53BP1 and γH2AX foci after radiation (immunofluorescence)", "format": "cell-based, human", "details": "6 μM, 12 h before 2-Gy radiation", "experimental": "A549 cells were allowed to attach overnight in chamber slides. For DDR experiments (Fig6A), cells were incubated with RK-33 for 12 h and then radiated with 2 Gy. After 0, 1, 6, and 24 h, cells were fixed and stained. Cells were fixed for 15 min in 4% formalin, washed with PBS, permeabilized (PBS containing 0.2% Triton X-100) for 5 min, and blocked for 30 min with 10% goat serum. […] Next, cells were washed with PBS and incubated with secondary antibodies, CY3 (1:200, goat anti-mouse, 115-165-071, Jackson Immuno Research) or Alexa fluor 488 (1:200, goat anti-rabbit, A11034, Invitrogen) for 1 h. Cells were washed, nuclei-stained with 4′,6-diamidino-2-phenylindole (DAPI), and cover-slipped. Photographs were taken with Nikon Eclipse 80i fluorescence microscope using a CoolSnap ES camera (Roper scientific, Sarasota, FL, USA)."}, "A549 cells [2]": {"tested_on": "A549 cells", "test": "Cell cycle analysis by flow cytometry", "format": "cell-based, human", "details": "0, 2, 4, and 6 μM, dose-dependent", "experimental": "A549 and H1299 cells were plated at 1 × 10^5 cells per well of a 6-well plate. Cell cycle was carried out as previously described (Vesuna et al, [2012]). Briefly, cells were trypsinized 24 h after plating and fixed in 70% ethanol overnight at −20°C. Fixed cells were washed with PBS and resuspended in DNA-staining solution (5 μg/ml propidium iodide, 0.5 mg/ml RNase A) for 1 h at room temperature. Cell cycle acquisition was performed on a FACScan I or FACSCalibur instrument (BD Biosciences, San Jose, CA, USA). Independent experiments were repeated three times. Data were analyzed using FlowJo software (Tree Star Inc., Ashland, OR, USA)."}, "H3255": {"tested_on": "H3255", "test": "MTS viability assay, 72 h, line with low DDX3 expression", "format": "cell-based", "experimental": "Proliferation was determined by counting cancer cells over time. Cells were seeded at 7.5 × 10^4 cells/well and counted daily with a TC10 automated cell counter (Bio-Rad, Hercules, CA, USA) at least three times. Viability of cancer cells was determined by MTS assay (CellTiter 96® AQueous One Solution, Promega, Madison, WI, USA) as described by the manufacturer. Briefly, 800–2,000 cells were allowed to attach overnight in a 96-well plate, treated with different concentrations of RK-33 and kept for 72 h. MTS reagent was kept for 2 h. Each experiment was repeated a minimum of three independent times."}, "A549 cells [3]": {"tested_on": "A549 cells", "test": "Immunoblotting of cell cycle, apoptosis, MAPK and DNA repair proteins", "format": "cell-based, human", "experimental": "Cell lysate was prepared with TB buffer method. For immunoblotting, ~25 μg protein was loaded on 10% SDS–PAGE gels. […] The blots were developed with clarity Western ECL (Bio-Rad, Hercules, CA, USA) and imaged with G:BOX Chemi XR5 (Syngene, Frederick, MD, USA)."}, "DDX5": {"biological_target": "T1, DDX5 (Homo sapiens, UniProt P17844)", "T1 construct": "Two plates of 70% confluent cells were lysed with IP lysis buffer; endogenous in cells", "T1 sequence (P17844 whole entry)": "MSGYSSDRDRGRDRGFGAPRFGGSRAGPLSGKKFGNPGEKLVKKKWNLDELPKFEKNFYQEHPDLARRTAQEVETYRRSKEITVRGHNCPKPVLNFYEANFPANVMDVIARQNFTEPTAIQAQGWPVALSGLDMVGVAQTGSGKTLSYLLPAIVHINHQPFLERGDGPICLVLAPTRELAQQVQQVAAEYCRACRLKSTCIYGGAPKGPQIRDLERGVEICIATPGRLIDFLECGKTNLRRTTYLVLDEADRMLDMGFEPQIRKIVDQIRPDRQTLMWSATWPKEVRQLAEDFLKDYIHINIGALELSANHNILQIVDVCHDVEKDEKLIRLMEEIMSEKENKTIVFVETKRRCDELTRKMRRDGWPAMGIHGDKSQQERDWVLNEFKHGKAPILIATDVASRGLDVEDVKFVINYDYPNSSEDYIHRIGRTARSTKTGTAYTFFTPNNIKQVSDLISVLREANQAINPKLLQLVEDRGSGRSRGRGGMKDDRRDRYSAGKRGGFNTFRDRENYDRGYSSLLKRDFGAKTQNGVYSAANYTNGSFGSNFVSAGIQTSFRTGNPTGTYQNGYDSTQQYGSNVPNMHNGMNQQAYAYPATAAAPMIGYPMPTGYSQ", "test": "Biotin bead pull-down assay with biotinylated RK-33, immunoblot", "format": "binding", "details": "biotinylated RK-33 molecules, 10 μM", "experimental": "Mean from 3 replicates with SD. • J, K Colony-forming assay of A549 and H3255 cells treated with RK-33 and with various doses of radiation 4 h later. Curves were fitted with a quadratic polynomial equation. Mean from 2 replicates with SD. P-values were determined by the extra sum of squares F-test. Source data are available online for this figure.\nTwo plates of 70% confluent cells were lysed with IP lysis buffer (Tris–HCl (pH 7.4) 25 mM, NaCl 150 mM, EDTA 1 mM, NP-40 1%, glycerol 5%, protease inhibitor). […] Streptavidin beads were added and incubated for 1 h at room temperature. The biotin-bead–RK-33 complex was extracted with a magnetic stand and washed seven times with PBS. Proteins were analyzed by immunoblot."}},
  "data": [
    {"substance": "diimidazo[4,5-d:4′,5′-f]-[1,3]diazepine [RK-33]", "values": [
      {"measurement": "persistence of radiation-induced DNA damage (53BP1 and γ-H2AX foci)", "setting": "A549 cells [1]", "result": "DNA damage persisted well beyond 24 h"},
      {"measurement": "cell cycle effect", "setting": "A549 cells [2]", "result": "G1 arrest"},
      {"measurement": "IC50", "setting": "H3255", "result": "> 25", "unit": "µM"},
      {"measurement": "DNA repair proteins ATR and XRCC4", "setting": "A549 cells [3]; 6 μM for 4 h, then 5 Gy", "result": "decrease of ATR but not XRCC4"},
      {"measurement": "phosphorylated ERK2 and ERK1", "setting": "A549 cells [3]; 7.5 μM or 10 μM, 24 h", "result": "reduction of phosphorylated ERK2 and ERK1"},
      {"measurement": "caspase cleavage", "setting": "A549 cells [3]; 10 μM", "result": "cleavage of caspases 7 and 9"},
      {"measurement": "cyclin D1 protein", "setting": "A549 cells [3]; 10 μM, especially evident 2 h after treatment", "result": "substantial reduction of cyclin D1"},
      {"measurement": "binding to DDX5 in pull-down", "setting": "DDX5", "result": "not to the closely related proteins DDX5 and DDX17"}
    ]}
  ]
}
